From patent US5861387A, “Controlled release systems and low dose androgens” (Endorecherche Inc., priority 1995, dated 1999)

Assays:
antibody 144A = assay: MPA radioimmunoassay, specificity of antibody 144A; assay type: binding, rabbit
Description: Antibody 144A was raised in rabbits against 17-hydroxyprogesterone-3-0-carboxymethyloxime-BSA. The labeled steroid used in the radioimmunoassay (RIA) was methyl-17α-hydroxyprogesterone acetate, 6α-[1,2-^3 H(N)]- obtained from NEN (CAT NO: NET 480) while the reference preparation was medroxyprogesterone acetate (MPA) obtained from Steraloids. The assay buffer used was 0.1% gelatin in 0.1M sodium phosphate, 0.15M sodium chloride, 0.1% sodium azide, pH 7.2. The extraction solvent mixture was ethyl ether-acetone (9:1, v:v) [EEA] while the LH-20 chromatography solvent mixture was iso-octane: toluene: methanol (90:5:5;v:v:v) [IOTH].
One ml of plasma was extracted twice with 5 ml of EEA. The extracts were evaporated to dryness with nitrogen and the remaining residue was dissolved in one ml of IOTH. The extracts were then subjected to LH-20 chromatography on […] columns (Coming CAT NO: 05 722A) filled with 2 g of LH-20 (Pharmacia). The gel was washed with 30 ml of IOTH before addition of one ml of sample and elution with IOTH. The first 6 ml were discarded. The following 10, 16.5 and 27.5 ml of eluent were fraction I (progesterone), II (MPA) and III (17-LH-progesterone), respectively. Fraction II was evaporated to dryness and reconstituted in 1.5 ml of assay buffer.
To each 12 x 75 mm borosilicate test tube was added: 0.2 ml containing 25,000 DPM of tritiated steroid, 0.5 ml of reference preparation ranging from 5 to 5000 pg/tube or 0.5 ml of extracted sample fraction II, 0.2 ml of antiserum 144A diluted 1/5000 or 0.2 ml of assay buffer to account for non specific binding. The tubes were then incubated overnight at 4° C. Then, 0.2 ml 2% charcoal Norit-A, 0.2% Dextran T-70 diluted in water was added. The tubes were then shaken gently and, after 10 min, they were centrifuged at 2000 x g for 10 min. The supernatant was mixed with 8 ml of Formula-989 (NEN: NEF-989) and the radioactivity was counted in a β-counter.

breast cancer [1] = conditions: in vivo; cited from earlier work
[2] = tested on: human breast cancer ZR-75-1 cells, androgen receptor; assay: Androgenic (androgen receptor) activity in ZR-75-1 cells: cell growth and GCDFP-15/GCDFP-24 secretion; assay type: cell-based; conditions: for androgenic activity: ZR-75-1 cells, low concentrations
Method: Maintenance of stock cultures The ZR-75-1 human breast cancer cell line can be obtained from the American Type Culture Collection (Rockville, Md.). The cells are routinely cultured in phenol red-free RPMI 1640 medium supplemented with 10 nM E2, 15 mM Hepes, 2 mM L-glutamine, 1 mM sodium pyruvate, 100 IU penicillin per ml, 100 μg streptomycin sulfate per ml, and 10% (v/v) fetal bovine serum (FBS), in a water-saturated atmosphere of 95% air: 5% CO2 at 37° C.
Stock cultures in their logarithmic growth phase are harvested with 0.05% trypsin/0.02% EDTA (w/v) in Hanks' balanced salts solution and resuspended in E2- and phenol red-free RPMI 1640 medium containing 5% (v/v) dextran-coated charcoal (DCC)-treated FBS and 500 ng of bovine insulin per ml, but otherwise supplemented as described above for maintenance of stock cultures. Cells were plated in 24-well Linbro culture plates (Flow Laboratories) at a final density of 0.5-4.0×10^4 cells/well.
Fourty-eight hours after plating, fresh SD medium containing the appropriate concentrations of steroids are added. […] The incubation media are replaced every other day and cells are harvested by trypsinization after 12 days of treatment, unless otherwise indicated. Cell number can be determined with a Coulter Counter.
Calculations and statistical analyses Apparent IC50 values are calculated using an iterative least squares regression (Rodbard, Endocrinology 94:1427-1437,1974), while apparent inhibition constants (Ki values) are calculated according to Cheng and Prusoff (Biochem. Pharmacol. 22: 3099-3108,1973).
In addition to inhibition of cell growth, the secretion of two glycoproteins, namely gross cystic disease fluid protein-15 (GCDFP-15) and GCDFP-24 is markedly stimulated by androgens (Simard et al., Mol. Endocrinol. 3: 694-702, 1989; Simard et al., Endocrinology 126: 3223-3231, 1990).
To assist in determining the activity of the potential compounds on the various steroid receptors, androgen, glucocorticoid, progesterone and estrogen-receptor-mediated activities of synthetic progestins and anabolic steroids can be measured in ZR-75-1 human breast cancer cells using cell growth as well as GCDFP-15 and GCDFP-24 release as parameters of response (Poulin and Labrie, Cancer Res. 46: 4933-4937, 1986; Poulin et al., Breast Cancer Res. Treatm. 12: 213-225, 1988; Poulin et al., Breast Cancer Res. Treatm. 13: 161-172, 1989; Poulin et al., Breast Cancer Res. Treatm. 13: 265-276, 1989; Simard et al., Mol. Endocrinol. 3: 694-702, 1989; Simard et al., Endocrinology 126: 3223-3231, 1990).
In order to analyze the interactions of synthetic progestins or anabolic steroids with the androgen receptor (AR) and glucocorticoid receptor (GR) in their inhibitory action on cell growth, one takes advantage of the additivity of the anti-proliferative effects of androgens and glucocorticoids in this cell line (Poulin et al., Breast Cancer Res. Treatm. 12: 213-225, 1988; Hatton and Labrie, F., unpublished data). […] On the other hand, the effect of a putative androgen can similarly be measured following saturation of GR by dexamethasone (DEX). […] Thus, in the presence of excess androgen (1 μM DMT) in the presence of E2 and insulin, glucocorticoid effects can be assessed with precision and with no interference by the other receptors. The same applies to study of the role of AR when the cells are incubated in the presence of excess glucocorticoid (3 μM DEX), in the presence of E2 and insulin.

masculinizing activity = conditions: low blood concentrations; cited from earlier work
[3] = tested on: DMBA-induced mammary carcinoma; conditions: cited from earlier work
breast cancer [4] = conditions: cited from earlier work
bone = conditions: cited from earlier work
breast cancer [5] = conditions: cited from earlier work; remark: listed apart in the source
[6] = E2-treated ovariectomized rats, with or without DHT

C[C@]12CC[C@@H](O)C[C@@H]1CC[C@@H]1[C@@H]2CC[C@]2(C)[C@@H](O)CC[C@@H]12 [3α-diol]
cross-reactivity with antibody 144A (antibody 144A): less than 0.1%

CC(=O)[C@@]1(O)CC[C@H]2[C@@H]3CC=C4C[C@@H](O)CC[C@]4(C)[C@H]3CC[C@@]21C [17-OH-pregnenolone]
cross-reactivity with antibody 144A (antibody 144A): less than 0.1%

C[C@H](O)[C@H]1CC[C@H]2[C@@H]3CCC4=CC(=O)CC[C@]4(C)[C@H]3CC[C@]12C [20α-OH-Prog]
cross-reactivity with antibody 144A (antibody 144A): less than 0.1%

CC/C(=C(/CC)c1ccc(O)cc1)c1ccc(O)cc1 [DES]
objective remissions in breast cancer (breast cancer [1]): effective in producing objective remissions

C[C@]12CCC(=O)C[C@@H]1CC[C@@H]1[C@@H]2CC[C@]2(C)[C@@H](O)CC[C@@H]12 [DHT, 5α-dihydrotestosterone]
concentration exerting maximal inhibitory effect on the AR ([2]; detailed kinetic studies, ZR-75-1): 1 µM | masculinizing activity (masculinizing activity): considerable masculinizing activity even at low blood concentrations

C[C@]12CC[C@@H]3c4ccc(O)cc4CC[C@H]3[C@@H]1CC[C@@H]2O [E2, 17β-estradiol]
cross-reactivity with antibody 144A (antibody 144A): less than 0.1% | number of new tumors per rat ([3]; 28-day observation period, E2-treated animals, with or without DHT): 1.5±0.3 per rat | complete responses (disappearance of palpable tumors) [3, 6]: 11.5% | progressing tumors [3, 6]: 69.2%

CC(C)C(=O)Nc1ccc([N+](=O)[O-])c(C(F)(F)F)c1 [Flutamide]
effect on DHT action ([3]; simultaneous treatment with DHT): completely prevented DHT action

C[C@]12CC[C@H]3[C@@H](CCC4=CC(=O)CC[C@@H]43)[C@@H]1CC[C@@H]2O [Nor-testosterone]
androgenic activity [2]: possess androgenic activity at low concentrations

CC/C(=C(\c1ccccc1)c1ccc(OCCN(C)C)cc1)c1ccccc1 [Tamoxifen]
median time from onset of therapy to treatment failure (breast cancer [4]; in vivo): 64 days | non-responders (breast cancer [4]; in vivo): 50% | partial response (PR) (breast cancer [4]; in vivo): 15% | survival (breast cancer [4]; tendency for improved survival): 330 days

C[C@]12CCC(=O)C=C1CC[C@@H]1[C@@H]2CC[C@]2(C)C(=O)CC[C@@H]12 [androstenedione]
cross-reactivity with antibody 144A (antibody 144A): less than 0.1%

C[C@H]1CC2=CC(=O)CC[C@]2(C)[C@H]2CC[C@@]3(C)[C@@H](CC[C@]3(C)O)[C@H]12 [calusterone, 7β,17α-dimethyltestosterone]
androgenic activity [2]: possess androgenic activity at low concentrations

CC(=O)O[C@]1(C(C)=O)CC[C@H]2[C@@H]3C=C(Cl)C4=CC(=O)CC[C@]4(C)[C@H]3CC[C@@]21C [chlormadinone acetate]
androgenic activity [2]: possess androgenic activity at low concentrations

C[C@]12CCC(=O)C=C1CC[C@@H]1[C@@H]2[C@@H](O)C[C@@]2(C)[C@H]1CC[C@]2(O)C(=O)CO [cortisol]
cross-reactivity with antibody 144A (antibody 144A): less than 0.1%

C#C[C@]1(O)CC[C@H]2[C@@H]3CCC4=Cc5oncc5C[C@]4(C)[C@H]3CC[C@@]21C [danazol]
androgenic activity [2]: possess androgenic activity at low concentrations

C[C@@H]1C[C@@]2(C)[C@@H](CC[C@@H]3[C@@H]2CC[C@]2(C)[C@@H](O)CC[C@@H]32)CC1=O [dromostanolone]
androgenic activity [2]: possess androgenic activity at low concentrations

C[C@]12CC[C@@H]3c4ccc(O)cc4CC[C@H]3[C@@H]1CCC2=O [estrone]
cross-reactivity with antibody 144A (antibody 144A): less than 0.1%

C#C[C@]1(O)CC[C@H]2[C@@H]3CCC4=CC(=O)CC[C@]4(C)[C@H]3CC[C@@]21C [ethisterone]
androgenic activity [2]: possess androgenic activity at low concentrations

C[C@]12C=CC(=O)C=C1CC[C@@H]1[C@@H]2CC[C@@]2(C)[C@H]1CC[C@]2(C)O [methandrostanolone]
androgenic activity [2]: possess androgenic activity at low concentrations | effect on postmenopausal osteoporosis (total body calcium) (bone; 24-26 months, double-blind): positive and relatively long-term

CCCCCCC(=O)O[C@H]1CC[C@H]2[C@@H]3CC[C@H]4CC(=O)C=C(C)[C@]4(C)[C@H]3CC[C@]12C [methonolone enanthate]
response rate (breast cancer [5]; 13 of 27 patients): 48% | median duration of survival, non-responders (breast cancer [5]; non-responder group): 7.5 months | median duration of survival, responders (breast cancer [5]; responders): 27 months

C[C@]12COC(=O)C[C@@H]1CC[C@@H]1[C@@H]2CC[C@@]2(C)[C@H]1CC[C@]2(C)O [oxandrolone]
androgenic activity [2]: possess androgenic activity at low concentrations

C[C@]12C/C(=C/O)C(=O)C[C@@H]1CC[C@@H]1[C@@H]2CC[C@@]2(C)[C@H]1CC[C@]2(C)O [oxymetholone]
androgenic activity [2]: possess androgenic activity at low concentrations

CC(=O)[C@H]1CC[C@H]2[C@@H]3CC=C4C[C@@H](O)CC[C@]4(C)[C@H]3CC[C@]12C [pregnenolone]
cross-reactivity with antibody 144A (antibody 144A): less than 0.1%

CC(=O)[C@H]1CC[C@H]2[C@@H]3CCC4=CC(=O)CC[C@]4(C)[C@H]3CC[C@]12C [progesterone]
cross-reactivity with antibody 144A (antibody 144A): less than 0.1%

C[C@]12Cc3c[nH]nc3C[C@@H]1CC[C@@H]1[C@@H]2CC[C@@]2(C)[C@H]1CC[C@]2(C)O [stanozolol]
androgenic activity [2]: possess androgenic activity at low concentrations | bone mass (bone; in vivo): increase in total bone mass | side effects (bone; randomized study in postmenopausal women): side effects were recorded in the majority of patients

CCC(=O)O[C@H]1CC[C@H]2[C@@H]3CCC4=CC(=O)CC[C@]4(C)[C@H]3CC[C@]12C [testosterone propionate]
effect in pre- and post-menopausal women (breast cancer [1]): beneficial effects in both pre- and post-menopausal women | objective remissions in breast cancer (breast cancer [1]): effective in producing objective remissions | remission rate and duration, quality of life and survival (breast cancer [1]): improved remission rate and duration, quality of life and survival

Vitamin D
bone resorption, osteoporotic women (bone; in vivo): only reduced bone resorption
